Measured values as given in ChEMBL document CHEMBL3877242, “Synthesis of novel 25-hydroxyprotopanaxadiol derivatives by methylation and methoxycarbonylation using dimethyl carbonate as a environment-friendly reagent and their anti-tumor evaluation” (Bioorg Med Chem Lett, 2016).

Legend:
[1] = (§1) Cytotoxicity against human DU145 cells assessed as reduction in cell viability after 48 hrs by MTT assay; assay type: functional, cell-based; details: DU-145, 48 h
DU-145 [2] = experiment: as §1; assay type: functional, cell-based
[3] = Cytotoxicity against human IOSE-144 cells assessed as reduction in cell viability after 48 hrs by MTT assay; assay type: toxicity, cell-based
[4] = Cytotoxicity against human HeLa cells assessed as reduction in cell viability after 48 hrs by MTT assay; assay type: functional, cell-based
[5] = Cytotoxicity against human HeLa cells assessed as cell growth inhibition at 30 uM after 48 hrs by MTT assay; assay type: functional; details: read-out: GI
[6] = Cytotoxicity against human DU145 cells assessed as viable cells at 30 uM after 48 hrs by MTT assay; assay type: functional; details: DU-145, 48 h, read-out: GI
DU-145 [7] = experiment: Potency index, ratio of 5-FU IC50 to compound IC50 for human DU145 cells; assay type: functional

Structure (SMILES): COC(=O)O[C@H]1CC[C@]2(C)[C@H]3C[C@@H](O)[C@@H]4[C@@H]([C@@](C)(CCC=C(C)C)OC)CC[C@@]4(C)[C@]3(C)CC[C@H]2C1(C)C
- IC50 [1]: 41.1 µM
- growth inhibition (GI) (DU-145 [2]): Dose-dependent effect
- IC50 at 48 h [3]: > 100 µM
- IC50 [4]: 30.2 µM

Structure (SMILES): COC(=O)O[C@H]1CC[C@]2(C)[C@H]3C[C@@H](O)[C@@H]4[C@@H](/C(C)=C/CCC(C)(C)O)CC[C@@]4(C)[C@]3(C)CC[C@H]2C1(C)C
- IC50 [1]: 10.9 µM
- growth inhibition (GI) (DU-145 [2]): Dose-dependent effect
- inhibition of growth at 30 µM [5]: 19.7%
- inhibition of growth at 30 µM [6]: 19.7%
- IC50 at 48 h [3]: > 100 µM
- IC50 [4]: 15.9 µM

Structure (SMILES): CO[C@](C)(CCC=C(C)C)[C@H]1CC[C@]2(C)[C@@H]1[C@H](O)C[C@@H]1[C@@]3(C)CC[C@H](O)C(C)(C)[C@@H]3CC[C@]12C
- IC50 [1]: 2.6 µM
- growth inhibition (GI) (DU-145 [2]): Dose-dependent effect
- Ratio IC50 (DU-145 [7]): 20 - 22
- inhibition of growth at 30 µM [5]: 20.6%
- inhibition of growth at 30 µM [6]: 20.6%
- IC50 at 48 h [3]: > 100 µM
- IC50 [4]: 1.1 µM

Structure (SMILES): COC(=O)O[C@H]1CC[C@]2(C)[C@H]3C[C@@H](O)[C@@H]4[C@@H]([C@](C)(O)CCC=C(C)C)CC[C@@]4(C)[C@]3(C)CC[C@H]2C1(C)C
- IC50 [1]: 1.2 µM
- growth inhibition (GI) (DU-145 [2]): Dose-dependent effect
- Ratio IC50 (DU-145 [7]): 20 - 22
- inhibition of growth at 30 µM [5]: 38.4%
- inhibition of growth at 30 µM [6]: 38.4%
- IC50 at 48 h [3]: > 100 µM
- IC50 [4]: 10.4 µM

Structure (SMILES): CO[C@H]1CC[C@]2(C)[C@H]3C[C@@H](OC)[C@@H]4[C@@H]([C@@](C)(CCCC(C)(C)OC)OC)CC[C@@]4(C)[C@]3(C)CC[C@H]2C1(C)C
- IC50 [1]: 18.7 µM
- growth inhibition (GI) (DU-145 [2]): Dose-dependent effect
- IC50 at 48 h [3]: > 100 µM
- IC50 [4]: 21.8 µM

Structure (SMILES): COC(=O)O[C@H]1CC[C@]2(C)[C@H]3C[C@@H](OC(=O)OC)[C@@H]4[C@@H](/C(C)=C/CCC(C)(C)OC(=O)OC)CC[C@@]4(C)[C@]3(C)CC[C@H]2C1(C)C
- IC50 [1]: 80.3 µM
- growth inhibition (GI) (DU-145 [2]): Dose-dependent effect
- IC50 at 48 h [3]: > 100 µM
- IC50 [4]: > 100 µM

Structure (SMILES): CC(C)(O)CCC[C@@](C)(O)[C@H]1CC[C@]2(C)[C@@H]1[C@H](O)C[C@@H]1[C@@]3(C)CC[C@H](O)C(C)(C)[C@@H]3CC[C@]12C
- IC50 [1]: 57.9 µM
- IC50 at 48 h [3]: > 100 µM
- IC50 [4]: 46.4 µM

Structure (SMILES): COC(=O)O[C@H]1CC[C@]2(C)[C@H]3C[C@@H](O)[C@@H]4[C@@H]([C@@](C)(CCCC(C)(C)O)OC)CC[C@@]4(C)[C@]3(C)CC[C@H]2C1(C)C
- IC50 [1]: 3.9 µM
- growth inhibition (GI) (DU-145 [2]): Dose-dependent effect
- inhibition of growth at 30 µM [5]: 18.6%
- inhibition of growth at 30 µM [6]: 18.6%
- IC50 at 48 h [3]: > 100 µM
- IC50 [4]: 7.1 µM

Structure (SMILES): CO[C@H]1CC[C@]2(C)[C@H]3C[C@@H](O)[C@@H]4[C@@H]([C@@](C)(CCCC(C)(C)O)OC)CC[C@@]4(C)[C@]3(C)CC[C@H]2C1(C)C
- IC50 [1]: 5.6 µM
- growth inhibition (GI) (DU-145 [2]): Dose-dependent effect
- inhibition of growth at 30 µM [5]: 32.5%
- inhibition of growth at 30 µM [6]: 32.5%
- IC50 at 48 h [3]: > 100 µM
- IC50 [4]: 6.7 µM

Structure (SMILES): COC(C)(C)CCC[C@@](C)(O)[C@H]1CC[C@]2(C)[C@@H]1[C@H](O)C[C@@H]1[C@@]3(C)CC[C@H](O)C(C)(C)[C@@H]3CC[C@]12C
- IC50 [1]: 5.4 µM
- IC50 at 48 h [3]: > 100 µM
- IC50 [4]: 22.5 µM

Structure (SMILES): CO[C@H]1CC[C@]2(C)[C@H]3C[C@@H](OC)[C@@H]4[C@@H](/C(C)=C/CCC(C)(C)O)CC[C@@]4(C)[C@]3(C)CC[C@H]2C1(C)C
- IC50 [1]: 12.1 µM
- growth inhibition (GI) (DU-145 [2]): Dose-dependent effect
- IC50 at 48 h [3]: > 100 µM
- IC50 [4]: 1.2 µM

Structure (SMILES): COC(=O)O[C@H]1CC[C@]2(C)[C@H]3C[C@@H](O)[C@@H]4[C@@H]([C@](C)(O)CCCC(C)(C)OC(=O)OC)CC[C@@]4(C)[C@]3(C)CC[C@H]2C1(C)C
- IC50 [1]: 29.2 µM
- growth inhibition (GI) (DU-145 [2]): Dose-dependent effect
- IC50 at 48 h [3]: > 100 µM
- IC50 [4]: 34.6 µM

Structure (SMILES): COC(=O)O[C@H]1CC[C@]2(C)[C@H]3C[C@@H](O)[C@@H]4[C@@H]([C@](C)(O)CCCC(C)(C)O)CC[C@@]4(C)[C@]3(C)CC[C@H]2C1(C)C
- IC50 [1]: 87.1 µM
- growth inhibition (GI) (DU-145 [2]): Dose-dependent effect
- IC50 at 48 h [3]: > 100 µM
- IC50 [4]: 59.9 µM

Structure (SMILES): O=c1[nH]cc(F)c(=O)[nH]1 [FLUOROURACIL]
- IC50 [1]: 26.1 µM
- IC50 at 48 h [3]: 36.1 µM
- IC50 [4]: 28.2 µM

Structure (SMILES): COC(=O)O[C@H]1CC[C@]2(C)[C@H]3C[C@@H](O)[C@@H]4[C@@H]([C@@](C)(CCCC(C)(C)OC(=O)OC)OC)CC[C@@]4(C)[C@]3(C)CC[C@H]2C1(C)C
- IC50 [1]: 32.6 µM
- growth inhibition (GI) (DU-145 [2]): Dose-dependent effect
- IC50 at 48 h [3]: > 100 µM
- IC50 [4]: 38.2 µM

Structure (SMILES): COC(=O)OC(C)(C)CCC[C@@](C)(O)[C@H]1CC[C@]2(C)[C@@H]1[C@H](O)C[C@@H]1[C@@]3(C)CC[C@H](O)C(C)(C)[C@@H]3CC[C@]12C
- IC50 [1]: 27.2 µM
- growth inhibition (GI) (DU-145 [2]): Dose-dependent effect
- IC50 at 48 h [3]: > 100 µM
- IC50 [4]: 26.9 µM

Structure (SMILES): COC(C)(C)CC/C=C(\C)[C@H]1CC[C@]2(C)[C@@H]1[C@H](O)C[C@@H]1[C@@]3(C)CC[C@H](O)C(C)(C)[C@@H]3CC[C@]12C
- IC50 [1]: 3.2 µM
- growth inhibition (GI) (DU-145 [2]): Dose-dependent effect
- inhibition of growth at 30 µM [5]: 20.4%
- inhibition of growth at 30 µM [6]: 20.4%
- IC50 at 48 h [3]: > 100 µM
- IC50 [4]: 1.3 µM
